Reference: US9133204B2, “5-membered heterocyclic amides and related compounds” (H. Lundbeck A/S, priority 2007, dated 2015)

biological target: T1, P2X7 receptor (Homo sapiens, UniProt Q99572); test: High throughput P2X7 calcium mobilization assay (Example 4A); type: cell-based; conditions: SH-SY5Y cells; 50% decrease in fluorescence response of cells exposed to 80 μM BzATP; Table I
T1 construct: host or cells: SH-SY5Y
T1 sequence (Q99572 1-595): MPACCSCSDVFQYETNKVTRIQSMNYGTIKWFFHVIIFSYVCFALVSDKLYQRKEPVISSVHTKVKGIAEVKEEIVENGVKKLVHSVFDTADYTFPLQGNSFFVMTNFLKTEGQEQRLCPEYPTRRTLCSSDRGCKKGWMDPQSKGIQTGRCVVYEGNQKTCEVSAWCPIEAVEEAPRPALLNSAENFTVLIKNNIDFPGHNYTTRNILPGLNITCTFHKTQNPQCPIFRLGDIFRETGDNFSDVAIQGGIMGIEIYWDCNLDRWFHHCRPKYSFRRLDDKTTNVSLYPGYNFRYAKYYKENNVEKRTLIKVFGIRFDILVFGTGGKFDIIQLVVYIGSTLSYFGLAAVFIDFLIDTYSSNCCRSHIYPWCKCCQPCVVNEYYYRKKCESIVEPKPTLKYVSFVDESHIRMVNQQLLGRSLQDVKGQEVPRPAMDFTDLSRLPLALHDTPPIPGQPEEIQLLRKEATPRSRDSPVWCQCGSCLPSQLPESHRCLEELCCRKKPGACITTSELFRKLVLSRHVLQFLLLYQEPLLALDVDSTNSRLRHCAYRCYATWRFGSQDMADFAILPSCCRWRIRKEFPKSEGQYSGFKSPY
Procedure, shortened: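 SH-SY5Y cells loaded with 2.3 μM Fluo-4 AM for 1 h at 37 °C, then preincubated 1 h at room temperature with test compound (final 1–2500 nM) in low-sodium sucrose buffer, pH 7.4. Antagonism measured against 80 μM BzATP (about EC50) as peak FLIPR calcium fluorescence over 2 min, corrected by no-agonist background.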

IC50, ≤ 2000 nM:
CC(C)CC(CNC(=O)c1sc(-c2ncccn2)nc1C(F)(F)F)c1ccc(C(F)(F)F)nc1 (stereo not drawn) [Compound 304, N-{4-methyl-2-[6-(trifluoromethyl)pyridin-3-yl]pentyl}-2-pyrimidin-2-yl-4-(trifluoromethyl)-1,3-thiazole-5-carboxamide]
CCc1nc(-c2ncccn2)sc1C(=O)NCC(CC(C)C)c1ccc(C(F)(F)F)nc1 (stereo not drawn) [Compound 305, 4-ethyl-N-{4-methyl-2-[6-(trifluoromethyl)pyridin-3-yl]pentyl}-2-pyrimidin-2-yl-1,3-thiazole-5-carboxamide]
Cc1nc(-c2ncccn2)sc1C(=O)NCC(CC(C)C)c1ccc(C(F)(F)F)nc1 (stereo not drawn) [Compound 306, 4-methyl-N-{4-methyl-2-[6-(trifluoromethyl)pyridin-3-yl]pentyl}-2-pyrimidin-2-yl-1,3-thiazole-5-carboxamide]
O=C(NCC1(c2cccnc2)CCCCC1)c1sc(-n2ncccc2=O)nc1C(F)(F)F [Compound 307, 2-(6-oxopyridazin-1(6H)-yl)-N-[(1-pyridin-3-ylcyclohexyl)methyl]-4-(trifluoromethyl)-1,3-thiazole-5-carboxamide]
O=C(NCC1(c2cccnc2)CCCCC1)c1sc(-n2ccnn2)nc1C(F)(F)F [Compound 308, N-[(1-pyridin-3-ylcyclohexyl)methyl]-2-(1H-1,2,3-triazol-1-yl)-4-(trifluoromethyl)-1,3-thiazole-5-carboxamide]
O=C(NCC1(c2cccnc2)CCCCC1)c1sc(-n2nccn2)nc1C(F)(F)F [Compound 309, N-[(1-pyridin-3-ylcyclohexyl)methyl]-2-(2H-1,2,3-triazol-2-yl)-4-(trifluoromethyl)-1,3-thiazole-5-carboxamide]
O=C(NCC1(c2cccnc2)CCCCC1)c1sc(-n2cncn2)nc1C(F)(F)F [Compound 310, N-[(1-pyridin-3-ylcyclohexyl)methyl]-2-(1H-1,2,4-triazol-1-yl)-4-(trifluoromethyl)-1,3-thiazole-5-carboxamide]
Cc1nc(-c2cccnc2)sc1C(=O)NCC1(c2cccnc2)CCCCC1 [Compound 311, 4-methyl-2-pyridin-3-yl-N-[(1-pyridin-3-ylcyclohexyl)methyl]-1,3-thiazole-5-carboxamide]
CN1CCN(C2(CNC(=O)c3sc(-c4ncccn4)nc3C(F)(F)F)CCCCC2)CC1 [Compound 312, N-{[1-(4-methylpiperazin-1-yl)cyclohexyl]methyl}-2-pyrimidin-2-yl-4-(trifluoromethyl)-1,3-thiazole-5-carboxamide]
O=C(NCC1(N2CCNCC2)CCCCC1)c1sc(-c2ncccn2)nc1C(F)(F)F [Compound 313, N-[(1-piperazin-1-ylcyclohexyl)methyl]-2-pyrimidin-2-yl-4-(trifluoromethyl)-1,3-thiazole-5-carboxamide]
O=C(NCC(c1ccc(Cl)cc1)N1CCOCC1)c1sc(-c2ncccn2)nc1C(F)(F)F (stereo not drawn) [Compound 314, N-[2-(4-chlorophenyl)-2-morpholin-4-ylethyl]-2-pyrimidin-2-yl-4-(trifluoromethyl)-1,3-thiazole-5-carboxamide]
CCc1nc(-c2ncccn2)sc1C(=O)NCC(c1ccc(C(F)(F)F)cc1)N(C)C(C)C (stereo not drawn) [Compound 315, 4-ethyl-N-{2-[isopropyl(methyl)amino]-2-[4-(trifluoromethyl)phenyl]ethyl}-2-pyrimidin-2-yl-1,3-thiazole-5-carboxamide]
O=C(NCC1(c2cccnc2)CCCCC1)c1sc(-c2cnccn2)nc1C(F)(F)F [Compound 316, 2-pyrazin-2-yl-N-[(1-pyridin-3-ylcyclohexyl)methyl]-4-(trifluoromethyl)-1,3-thiazole-5-carboxamide]
O=C(NCC1(c2cccnc2)CCCCC1)c1sc(-c2nccs2)nc1C(F)(F)F [Compound 317, N-[(1-pyridin-3-ylcyclohexyl)methyl]-4-(trifluoromethyl)-2,2′-bi-1,3-thiazole-5-carboxamide]
O=C(NCC1(c2cccnc2)CCCCC1)c1sc(-c2ccc3[nH]ccc3c2)nc1C(F)(F)F [Compound 318, 2-(1H-indol-5-yl)-N-[(1-pyridin-3-ylcyclohexyl)methyl]-4-(trifluoromethyl)-1,3-thiazole-5-carboxamide]
O=C(NCC1(c2cccnc2)CCCCC1)c1sc(-c2cccc3cccnc23)nc1C(F)(F)F [Compound 319, N-[(1-pyridin-3-ylcyclohexyl)methyl]-2-quinolin-8-yl-4-(trifluoromethyl)-1,3-thiazole-5-carboxamide]
CC(C)CC(CNC(=O)c1sc(-c2ncccn2)nc1C(F)(F)F)c1cccnc1 (stereo not drawn) [Compound 320, N-(4-methyl-2-pyridin-3-ylpentyl)-2-pyrimidin-2-yl-4-(trifluoromethyl)-1,3-thiazole-5-carboxamide]
O=C(NCC1(c2cccnc2)CCCCC1)c1sc(-c2ccccn2)nc1C(F)(F)F [Compound 321, 2-pyridin-2-yl-N-[(1-pyridin-3-ylcyclohexyl)methyl]-4-(trifluoromethyl)-1,3-thiazole-5-carboxamide]
